Reference: ChEMBL document CHEMBL4396875, “Hybridization of β-Adrenergic Agonists and Antagonists Confers G Protein Bias” (J Med Chem, 2019)

Key:
Format in all cases: cell-based
[1] = molecular target: T1, Beta-2 adrenergic receptor (Homo sapiens, UniProt P07550); assay: Displacement of [3H]-CGP-12177 from human beta2-adrenergic receptor expressed in CHO cells after 60 mins by radioligand competition binding assay
[2] = molecular target: T2, Beta-1 adrenergic receptor (Homo sapiens, UniProt P08588); assay: Agonist activity at beta1-adrenergic receptor (unknown origin) expressed in HEK293T cells harboring GFP/Rluc2-tagged beta-arrestin2 assessed as increase in beta-arrestin2 recruitment incubated for 5 mins in presence of GRK5 and coelenterazine 400a by BRET assay
T2 sequence (P08588 whole entry): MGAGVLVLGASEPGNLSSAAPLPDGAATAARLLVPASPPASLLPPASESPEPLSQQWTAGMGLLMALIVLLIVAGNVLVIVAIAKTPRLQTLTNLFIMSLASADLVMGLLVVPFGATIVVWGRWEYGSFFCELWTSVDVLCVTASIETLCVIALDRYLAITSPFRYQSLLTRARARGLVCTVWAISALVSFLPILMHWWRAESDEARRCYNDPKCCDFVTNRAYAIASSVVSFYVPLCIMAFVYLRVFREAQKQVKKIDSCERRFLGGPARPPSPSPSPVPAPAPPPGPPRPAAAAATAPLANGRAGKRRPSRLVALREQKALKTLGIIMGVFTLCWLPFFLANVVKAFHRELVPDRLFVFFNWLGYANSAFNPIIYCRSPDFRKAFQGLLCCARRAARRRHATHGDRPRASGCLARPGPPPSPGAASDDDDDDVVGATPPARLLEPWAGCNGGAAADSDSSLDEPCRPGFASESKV

[3] = molecular target: T1, Beta-2 adrenergic receptor; assay: Agonist activity at beta2-adrenergic receptor (unknown origin) expressed in HEK293T cells harboring GFP/Rluc2-tagged beta-arrestin2 assessed as increase in beta-arrestin2 recruitment incubated for 5 mins in presence of GSK5 and coelenterazine 400a by BRET assay
[4] = molecular target: T1, Beta-2 adrenergic receptor; assay: Agonist activity at beta2-adrenergic receptor (unknown origin) expressed in HEK293T cells harboring Rluc2-117-GalphaS/GFP10-Ggamma/Gbeta1 assessed as activation of GalphaS incubated for 5 mins in presence of coelenterazine 400a by BRET assay
[5] = molecular target: Beta-1 adrenergic receptor (Mus musculus, UniProt P34971); assay: Displacement of [3H]-CGP-12177 from murine beta1-adrenergic receptor expressed in HEK293T cells after 60 mins by radioligand competition binding assay
Chain of Beta-1 adrenergic receptor (Mus musculus, UniProt P34971) (P34971 whole entry): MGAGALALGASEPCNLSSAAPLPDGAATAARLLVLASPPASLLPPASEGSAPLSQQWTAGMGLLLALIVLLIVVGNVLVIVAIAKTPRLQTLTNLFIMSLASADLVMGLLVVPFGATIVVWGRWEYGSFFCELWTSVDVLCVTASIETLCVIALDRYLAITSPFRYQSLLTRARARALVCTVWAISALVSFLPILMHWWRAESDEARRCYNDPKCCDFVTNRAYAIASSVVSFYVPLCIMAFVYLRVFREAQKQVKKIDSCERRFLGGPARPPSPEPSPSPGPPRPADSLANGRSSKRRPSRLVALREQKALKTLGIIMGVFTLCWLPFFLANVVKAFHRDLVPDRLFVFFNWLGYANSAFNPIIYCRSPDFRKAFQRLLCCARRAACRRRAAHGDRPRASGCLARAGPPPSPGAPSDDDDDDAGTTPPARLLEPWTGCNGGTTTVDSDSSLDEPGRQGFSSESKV

[6] = molecular target: T1, Beta-2 adrenergic receptor; assay: Agonist activity at beta2-adrenergic receptor (unknown origin) expressed in HEK293T cells harboring GFP/Rluc2-tagged beta-arrestin2 assessed as increase in beta-arrestin2 recruitment incubated for 5 mins in presence of GSK2 and coelenterazine 400a by BRET assay
[7] = molecular target: T2, Beta-1 adrenergic receptor; assay: Agonist activity at beta1-adrenergic receptor (unknown origin) expressed in HEK293T cells harboring Rluc2-117-GalphaS/GFP10-Ggamma/Gbeta1 assessed as activation of GalphaS incubated for 5 mins in presence of coelenterazine 400a by BRET assay
[8] = molecular target: T2, Beta-1 adrenergic receptor; assay: Agonist activity at beta1-adrenergic receptor (unknown origin) expressed in HEK293T cells harboring GFP/Rluc2-tagged beta-arrestin2 assessed as increase in beta-arrestin2 recruitment incubated for 5 mins in presence of coelenterazine 400a by BRET assay
[9] = molecular target: T2, Beta-1 adrenergic receptor; assay: Agonist activity at beta1-adrenergic receptor (unknown origin) expressed in HEK293T cells harboring GFP/Rluc2-tagged beta-arrestin2 assessed as increase in beta-arrestin2 recruitment incubated for 5 mins in presence of GRK2 and coelenterazine 400a by BRET assay
[10] = molecular target: T1, Beta-2 adrenergic receptor; assay: Agonist activity at beta2-adrenergic receptor (unknown origin) expressed in HEK293T cells harboring GFP/Rluc2-tagged beta-arrestin2 assessed as increase in beta-arrestin2 recruitment incubated for 5 mins in presence of coelenterazine 400a by BRET assay

T1 sequence (P07550 whole entry): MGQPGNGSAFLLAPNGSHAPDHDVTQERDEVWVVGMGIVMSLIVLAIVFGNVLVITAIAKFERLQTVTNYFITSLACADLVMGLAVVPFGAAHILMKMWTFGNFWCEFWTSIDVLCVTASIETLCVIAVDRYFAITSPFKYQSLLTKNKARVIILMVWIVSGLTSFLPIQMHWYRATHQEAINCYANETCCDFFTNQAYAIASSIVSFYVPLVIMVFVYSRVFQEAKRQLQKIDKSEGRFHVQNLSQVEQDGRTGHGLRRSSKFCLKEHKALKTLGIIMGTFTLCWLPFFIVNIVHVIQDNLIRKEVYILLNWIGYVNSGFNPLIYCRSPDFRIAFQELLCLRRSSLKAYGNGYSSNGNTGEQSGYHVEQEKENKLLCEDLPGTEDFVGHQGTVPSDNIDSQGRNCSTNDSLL

CC(C)NC[C@H](O)COc1ccc(O)c(O)c1
Ki [1]: 0.012 µM | EC50 [2]: 0.316 µM | EC50 [3]: 0.251 µM | EC50 [4]: 0.794 µM | Ki [5]: 0.014 µM | EC50 [6]: 0.316 µM | EC50 ([7]; read-out: pEC50 (converted)): 0.631 µM | EC50 [8]: 0.631 µM | EC50 [9]: 1 µM

COc1ccccc1OCCNC[C@H](O)c1ccc(O)c(O)c1
EC50 [2]: 0.0513 µM | EC50 [10]: 0.269 µM | EC50 [3]: 0.1 µM | EC50 [4]: 0.0631 µM | EC50 [6]: 0.158 µM | EC50 ([7]; read-out: pEC50 (converted)): 0.0398 µM | EC50 [8]: 0.0794 µM | EC50 [9]: 0.0631 µM

COc1cc(CCNC[C@H](O)c2ccc(O)c(O)c2)ccc1OCCCc1ccccc1
EC50 [2]: 0.501 µM | EC50 [10]: 0.724 µM | EC50 [3]: 0.417 µM | EC50 [4]: 0.1 µM | EC50 [6]: 0.501 µM | EC50 ([7]; read-out: pEC50 (converted)): 2 µM | EC50 [8]: 0.794 µM | EC50 [9]: 0.794 µM

COc1ccccc1OCCNC[C@H](O)COc1ccc(O)c(O)c1
Ki [1]: 0.021 µM | EC50 [2]: 0.398 µM | EC50 [3]: 0.631 µM | EC50 [4]: 12.6 µM | Ki [5]: 0.012 µM | EC50 [6]: 0.794 µM | EC50 ([7]; read-out: EC50): 0.3 to 0.8 µM | EC50 ([7]; read-out: pEC50 (converted)): 0.794 µM | EC50 [8]: 0.316 µM | EC50 [9]: 0.398 µM

COc1ccccc1OCCNCCc1cccc2[nH]c3ccccc3c12
Ki [1]: 0.026 µM | Ki [5]: 0.33 µM

COc1cc(CCNCCCOc2ccc(O)c(O)c2)ccc1OCCCc1ccccc1
Ki [1]: 0.7 µM | Ki [5]: 1.2 µM

CC(C)NC[C@@H](O)COc1ccc(O)c(O)c1
Ki [1]: 0.42 µM | Ki [5]: 0.86 µM

COc1ccccc1OCCNC[C@@H](O)c1cccc2[nH]c3ccccc3c12
Ki [1]: 0.17 µM | Ki [5]: 0.34 µM

COc1ccccc1OCCNC[C@H](O)c1cccc2[nH]c3ccccc3c12
Ki [1]: 0.0033 µM | Ki [5]: 0.0066 µM

COc1ccccc1OCCNC[C@@H](O)Cc1ccc(O)c(O)c1
Ki [1]: 0.74 µM | Ki [5]: 2.4 µM

COc1ccccc1OCCNCCCOc1ccc(O)c(O)c1
Ki [1]: 3.8 µM | Ki [5]: > 10 µM

COc1cc(CCNC[C@@H](O)COc2ccc(O)c(O)c2)ccc1OCCCc1ccccc1
Ki [1]: 0.12 µM | Ki [5]: 0.31 µM

COc1ccccc1OCCNCCCOc1cccc2[nH]c3ccccc3c12
Ki [1]: 0.0054 µM | Ki [5]: 0.024 µM

COc1ccccc1OCCNC[C@@H](O)COc1ccc(O)c(O)c1
Ki [1]: 7.9 µM | Ki [5]: 7.4 µM

COc1ccccc1OCCNC[C@H](O)Cc1ccc(O)c(O)c1
Ki [1]: 5.2 µM | Ki [5]: > 10 µM

COc1ccccc1OCCNCCCc1ccc(O)c(O)c1
Ki [1]: 0.92 µM | Ki [5]: > 10 µM

CC(C)NCCCOc1ccc(O)c(O)c1
Ki [1]: 6.9 µM | Ki [5]: > 10 µM

COc1cc(CCNC[C@H](O)COc2ccc(O)c(O)c2)ccc1OCCCc1ccccc1
Ki [1]: 0.0072 µM | EC50 [2]: 7.94 µM | EC50 [3]: 2 µM | EC50 [4]: 12.6 µM | Ki [5]: 0.0065 µM | EC50 ([7]; read-out: pEC50 (converted)): 2.51 µM | EC50 [8]: 10 µM | EC50 [9]: 2.51 µM

OCc1cc(C(O)CNCCCCCCOCCCCc2ccccc2)ccc1O (racemic) [SALMETEROL]
Ki [5]: 0.55 µM
